The values below come from patent US20150189844A1, “METHOD FOR […] RECOMBINATION” (Biogemma, priority 2012, published 2015).

In assay [1] the test system is I-SceI:GR. The note with it: one week. As to the method:
(§1) Embryos isolated from selfed plants containing the TL and DL were placed onto a regeneration medium according to Ishida et al. (Ishida et al., 1996) lacking the kanamycin selective agent. For first experiment, LS-AS medium was complemented by 0, 30 or 50 μM dexamethasone and after one week transferred sequentially to LSD1.5, LSZ and ½LSF medium lacking dexamethasone and containing 50 mg·L−1 of kanamycin. For the second experiment, callus was developed for 3 days on LS-AS, 1 week on LSD1.5 and 3 weeks on LSZ medium. Then, callus was cultivated 1 week on LSZ medium complemented by 0 μM, 30 μM or 50 μM of dexamethasone and selected for 2 weeks on LSZ and then ½ LSF medium complemented by 50 mg·L−1 of kanamycin. GFP fluorescence of callus was visualized under the fluorescence stereomicroscope (Leica MZ16F) with a GFP2 filter.

For assay [2], the system named is I-SceI:GR. As to the method:
as §1
Plant regeneration from maize leaves has not been reported but calli derived from immature maize embryos are routinely used to regenerate plants (Lu et al., 1983). Embryos isolated from immature kernels of selfed F2 plants containing the TL and the DL were placed on callus induction medium with dexamethasone at 0 μM (control), 30 μM or 50 μM.

Where two headings read alike, the source gives them in different places.

Regarding `C[C@@H]1C[C@H]2[C@@H]3CCC4=CC(=O)C=C[C@]4(C)[C@@]3(F)[C@@H](O)C[C@]2(C)[C@@]1(O)C(=O)CO` [Dexamethasone, dexamethasone], the “Mutations in TL I-SceI site” value in the assay on I-SceI:GR [1] (TL1/DL calli, 30 μM) is listed as 76; in the assay with I-SceI:GR [1] (TL1/DL calli, 50 μM) it was 76; in the assay with I-SceI:GR [1] (TL2/DL calli, 30 μM) it was 15; in the assay on I-SceI:GR [1] (TL2/DL calli, 50 μM), 36. In addition, the “GT Frequency, discovered kanamycin resistant events/extracted embryos” value with I-SceI:GR [2] (TL1 × DL, 30 μM) stood at 0.39%; in the assay with I-SceI:GR [2] (TL1 × DL, 50 μM) it was 0.55%; in the assay with I-SceI:GR [2] (TL2 × DL, 30 μM), 0.53%; with I-SceI:GR [2] (TL2 × DL, 50 μM), 0.27%. Besides, the “Number of kanamycin resistant events” value was 1 in the assay with I-SceI:GR [2] (TL1 × DL, 181 extracted embryos, 50 μM); 1 in the assay with I-SceI:GR [2] (TL1 × DL, 255 extracted embryos, 30 μM in callus induction medium); 1 with I-SceI:GR [2] (TL2 × DL, 374 extracted embryos, 50 μM); 3 in the assay with I-SceI:GR [2] (TL2 × DL, 563 extracted embryos, 30 μM).
